The record followed here is PubChem BioAssay AID212 (DTP/NCI, 2004).

This experiment deals with BDF1 mice, colon carcinoma 38 sc, T/C %. Nature of the experiment: NCI In Vivo Anticancer Drug Screen. Data for tumor model Colon Carcinoma 38 (subcutaneous) in B6D2F1 (BDF1) mice. An outline of the steps:
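T/C readout: treated group (T) measurement over vehicle control group (C) measurement. Endpoint is survival or tumor size in mice bearing a transplanted tumor.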

The mark [1] stands for this setting: endpoint: median tumor weight (est.), dose: 12.5 mg/kg/injection, schedule: Q07DX002 (ip), vehicle: saline, higher = larger tumour.
The mark [2] stands for this setting: endpoint: median tumor weight (est.), dose: 25.0 mg/kg/injection, schedule: Q07DX002 (ip), vehicle: saline, higher = larger tumour.
The mark [3] stands for this setting: endpoint: median tumor weight (est.), dose: 50.0 mg/kg/injection, schedule: Q07DX002 (ip), vehicle: saline, higher = larger tumour.
Setting [4] is: endpoint: median tumor weight (est.), dose: 100.0 mg/kg/injection, schedule: Q07DX002 (ip), vehicle: saline, higher = larger tumour.
The mark [5] stands for this setting: endpoint: median tumor weight (est.), dose: 1.56 mg/kg/injection, schedule: Q07DX002 (ip), vehicle: saline, higher = larger tumour.
The mark [6] stands for this setting: endpoint: median tumor weight (est.), dose: 6.25 mg/kg/injection, schedule: Q07DX002 (ip), vehicle: saline, higher = larger tumour.

Molecules are shown by their SMILES. Values joined by “and” are separate entries in the source; they are usually repeats but may differ in a detail not shown here. Equal entries are not always repeated. Records with an inconclusive call do not appear. Where a SMILES comes first, the peptide text is derived from it. The star is where a group is joined. Trt = c1ccc(C(c2ccccc2)(c2ccccc2)*)cc1; Cbz = O=C(OCc1ccccc1)*; Bn = c1ccc(C*)cc1; βAla = NCCC(=O)O

For `O=C1C=CC(=O)O1` (tested in a mixture with another compound), the T/C runs as follows: under setting [1], 155 % of control; under setting [2], 106 % of control; under setting [3], 90 % of control; under setting [4], 100 % of control; (endpoint: median tumor weight (est.), dose: 200.0 mg/kg/injection, schedule: Q07DX002 (ip), vehicle: saline, higher = larger tumour) 86 % of control; (endpoint: median tumor weight (est.), dose: 400.0 mg/kg/injection, schedule: Q07DX002 (ip), vehicle: saline, higher = larger tumour) 86 % of control.
As for `CCOC(=O)C1(c2ccccc2)C(=O)Oc2ccccc21` (stereo not drawn), the T/C by setting is: (endpoint: median tumor weight (est.), dose: 12.5 mg/kg/injection, schedule: Q07DX002 (ip), vehicle: saline with Tween-80, higher = larger tumour) 94 % of control; (endpoint: median tumor weight (est.), dose: 25.0 mg/kg/injection, schedule: Q07DX002 (ip), vehicle: saline with Tween-80, higher = larger tumour) 112 % of control and 87 % of control; (endpoint: median tumor weight (est.), dose: 50.0 mg/kg/injection, schedule: Q07DX002 (ip), vehicle: saline with Tween-80, higher = larger tumour) 61 % of control; (endpoint: median tumor weight (est.), dose: 400.0 mg/kg/injection, schedule: Q07DX002 (ip), vehicle: saline with Tween-80, higher = larger tumour) 107 % of control.
`C[CH2][Sn]([CH2]C)([O]S(C)(=O)=O)[O]S(C)(=O)=O`: the T/C by setting is: under setting [5], 18 % of control; (endpoint: median tumor weight (est.), dose: 3.13 mg/kg/injection, schedule: Q07DX002 (ip), vehicle: saline, higher = larger tumour) 78 % of control; under setting [6], 108 % of control and 117 % of control and 96 % of control; under setting [2], 26 % of control.
For the compound `COC(=O)C(CSC(c1ccccc1)(c1ccccc1)c1ccccc1)NC(=O)C(CSCc1ccccc1)NC(=O)CCNC(=O)OCc1ccccc1` (stereo not drawn) ({Cbz-βAla}-Cys(Bn)-Cys(Trt)-OMe; configuration not given here), the T/C by setting is: (endpoint: median tumor weight (est.), dose: 25.0 mg/kg/injection, schedule: Q07DX002 (ip), vehicle: Klucel (hydroxypropylcellulose) (HPC), higher = larger tumour) 106 % of control; (endpoint: median tumor weight (est.), dose: 50.0 mg/kg/injection, schedule: Q07DX002 (ip), vehicle: Klucel (hydroxypropylcellulose) (HPC), higher = larger tumour) 109 % of control; (endpoint: median tumor weight (est.), dose: 100.0 mg/kg/injection, schedule: Q07DX002 (ip), vehicle: Klucel (hydroxypropylcellulose) (HPC), higher = larger tumour) 96 % of control; (endpoint: median tumor weight (est.), dose: 200.0 mg/kg/injection, schedule: Q07DX002 (ip), vehicle: Klucel (hydroxypropylcellulose) (HPC), higher = larger tumour) 87 % of control; (endpoint: median tumor weight (est.), dose: 400.0 mg/kg/injection, schedule: Q07DX002 (ip), vehicle: Klucel (hydroxypropylcellulose) (HPC), higher = larger tumour) 123 % of control.
As to `O=C(O)Cc1cccc2c(=O)cc(-c3ccco3)oc12`, the T/C is 74 % of control under setting [3] and 53 % of control under setting [4].
As to `CC(C)NCC(O)COc1cccc2ccccc12` (stereo not drawn), the T/C is 122 % of control (endpoint: median tumor weight (est.), dose: 4.0 mg/kg/injection, schedule: Q07DX002 (ip), vehicle: Klucel (hydroxypropylcellulose) (HPC), higher = larger tumour); 100 % of control (endpoint: median tumor weight (est.), dose: 8.0 mg/kg/injection, schedule: Q07DX002 (ip), vehicle: Klucel (hydroxypropylcellulose) (HPC), higher = larger tumour); 88 % of control (endpoint: median tumor weight (est.), dose: 64.0 mg/kg/injection, schedule: Q07DX002 (ip), vehicle: Klucel (hydroxypropylcellulose) (HPC), higher = larger tumour).
Regarding `C/C=C(\C)c1cc(=O)c2c(C)cc3c(c2o1)C(=O)c1c(O)c(C2CC(C)(N(C)C)C(OC(C)=O)C(C)O2)cc(C2CC(N(C)C)C(O)C(C)O2)c1C3=O` (stereo not drawn), the T/C was 78 % of control (endpoint: median tumor weight (est.), dose: 0.31 mg/kg/injection, schedule: Q07DX002 (ip), vehicle: saline, higher = larger tumour); 84 % of control (endpoint: median tumor weight (est.), dose: 0.31 mg/kg/injection, schedule: Q07DX002 (ip), vehicle: suspension in saline, higher = larger tumour); 75 % of control and 92 % of control (endpoint: median tumor weight (est.), dose: 0.62 mg/kg/injection, schedule: Q07DX002 (ip), vehicle: saline, higher = larger tumour); 97 % of control (endpoint: median tumor weight (est.), dose: 0.62 mg/kg/injection, schedule: Q07DX002 (ip), vehicle: suspension in saline, higher = larger tumour); 97 % of control (endpoint: median tumor weight (est.), dose: 1.25 mg/kg/injection, schedule: Q07DX002 (ip), vehicle: saline, higher = larger tumour); 81 % of control (endpoint: median tumor weight (est.), dose: 1.25 mg/kg/injection, schedule: Q07DX002 (ip), vehicle: suspension in saline, higher = larger tumour). The T/C is 116 % of control and 105 % of control (endpoint: median tumor weight (est.), dose: 2.5 mg/kg/injection, schedule: Q07DX002 (ip), vehicle: saline, higher = larger tumour); 90 % of control (endpoint: median tumor weight (est.), dose: 2.5 mg/kg/injection, schedule: Q07DX002 (ip), vehicle: suspension in saline, higher = larger tumour); 86 % of control (endpoint: median tumor weight (est.), dose: 5.0 mg/kg/injection, schedule: Q07DX002 (ip), vehicle: saline, higher = larger tumour); 97 % of control (endpoint: median tumor weight (est.), dose: 5.0 mg/kg/injection, schedule: Q07DX002 (ip), vehicle: suspension in saline, higher = larger tumour); 97 % of control (endpoint: median tumor weight (est.), dose: 10.0 mg/kg/injection, schedule: Q07DX002 (ip), vehicle: saline, higher = larger tumour); 120 % of control (endpoint: median tumor weight (est.), dose: 10.0 mg/kg/injection, schedule: Q07DX002 (ip), vehicle: suspension in saline, higher = larger tumour).
With `CC1(C)N=C(N)N=C(N)N1c1ccc(F)c(C(F)(F)F)c1`, the T/C under setting [5] is 87 % of control; the T/C under setting [6] was 81 % of control and 84 % of control; the T/C under setting [1] was 50 % of control and 64 % of control; the T/C (endpoint: median tumor weight (est.), dose: 12.5 mg/kg/injection, schedule: Q07DX003 (ip), vehicle: suspension in saline, higher = larger tumour) is 169 % of control; the T/C under setting [2] is 79 % of control and 91 % of control; the T/C (endpoint: median tumor weight (est.), dose: 25.0 mg/kg/injection, schedule: Q07DX003 (ip), vehicle: suspension in saline, higher = larger tumour) was 161 % of control. For the same compound, the T/C runs as follows: under setting [3], 40 % of control and 60 % of control; (endpoint: median tumor weight (est.), dose: 50.0 mg/kg/injection, schedule: Q07DX003 (ip), vehicle: suspension in saline, higher = larger tumour) 95 % of control; (endpoint: median tumor weight (est.), dose: 100.0 mg/kg/injection, schedule: Q07DX003 (ip), vehicle: suspension in saline, higher = larger tumour) 104 % of control.
Take `COc1ccc2c(c1)CCn1c(C)c(COC(=O)NC(C)C)c(COC(=O)NC(C)C)c1-2`: the T/C was 76 % of control (endpoint: median tumor weight (est.), dose: 6.25 mg/kg/injection, schedule: Q07DX002 (ip), vehicle: distilled water + Tween-80, higher = larger tumour); 102 % of control (endpoint: median tumor weight (est.), dose: 12.5 mg/kg/injection, schedule: Q07DX002 (ip), vehicle: distilled water + Tween-80, higher = larger tumour); 97 % of control (endpoint: median tumor weight (est.), dose: 25.0 mg/kg/injection, schedule: Q07DX002 (ip), vehicle: distilled water + Tween-80, higher = larger tumour); 65 % of control (endpoint: median tumor weight (est.), dose: 50.0 mg/kg/injection, schedule: Q07DX002 (ip), vehicle: distilled water + Tween-80, higher = larger tumour); 48 % of control (endpoint: median tumor weight (est.), dose: 100.0 mg/kg/injection, schedule: Q07DX002 (ip), vehicle: distilled water + Tween-80, higher = larger tumour).
Take `O=C1C(NCC(O)CO)=C(N2CC2)C(=O)C(NCC(O)CO)=C1N1CC1` (stereo not drawn): the T/C reads like this: (endpoint: median tumor weight (est.), dose: 2.0 mg/kg/injection, schedule: Q07DX002 (ip), vehicle: saline, higher = larger tumour) 105 % of control; (endpoint: median tumor weight (est.), dose: 4.0 mg/kg/injection, schedule: Q07DX002 (ip), vehicle: saline, higher = larger tumour) 60 % of control; (endpoint: median tumor weight (est.), dose: 4.0 mg/kg/injection, schedule: Q07DX002 (ip), vehicle: suspension in saline, higher = larger tumour) 66 % of control; (endpoint: median tumor weight (est.), dose: 8.0 mg/kg/injection, schedule: Q07DX002 (ip), vehicle: saline, higher = larger tumour) 77 % of control; (endpoint: median tumor weight (est.), dose: 8.0 mg/kg/injection, schedule: Q07DX002 (ip), vehicle: suspension in saline, higher = larger tumour) 100 % of control; (endpoint: median tumor weight (est.), dose: 16.0 mg/kg/injection, schedule: Q07DX002 (ip), vehicle: saline, higher = larger tumour) 12 % of control. Besides, the T/C (endpoint: median tumor weight (est.), dose: 16.0 mg/kg/injection, schedule: Q07DX002 (ip), vehicle: suspension in saline, higher = larger tumour) is 69 % of control.
`O=C1c2c(O)ccc(O)c2C(=O)c2c(NCCNCCO)ccc(NCCNCCO)c21`: the T/C by setting is: (endpoint: median survival time, dose: 1.0 mg/kg/injection, schedule: Q04DX004 (ip), vehicle: acid diluted with saline, higher = longer survival) 96 % of control; (endpoint: median survival time, dose: 2.3 mg/kg/injection, schedule: Q07DX004 (iv), vehicle: water, higher = longer survival) 153 % of control; (endpoint: median survival time, dose: 3.7 mg/kg/injection, schedule: Q07DX004 (iv), vehicle: water, higher = longer survival) 176 % of control; (endpoint: median survival time, dose: 4.0 mg/kg/injection, schedule: Q04DX004 (ip), vehicle: acid diluted with saline, higher = longer survival) 117 % of control; (endpoint: median survival time, dose: 6.0 mg/kg/injection, schedule: Q07DX004 (iv), vehicle: water, higher = longer survival) 199 % of control; (endpoint: median tumor weight (est.), dose: 0.5 mg/kg/injection, schedule: Q07DX002 (ip), vehicle: water, higher = larger tumour) 92 % of control and 100 % of control and 102 % of control. In addition, the T/C is, setting by setting: (endpoint: median tumor weight (est.), dose: 1.0 mg/kg/injection, schedule: Q07DX002 (ip), vehicle: acid diluted with saline, higher = larger tumour) 76 % of control; (endpoint: median tumor weight (est.), dose: 2.0 mg/kg/injection, schedule: Q07DX002 (ip), vehicle: acid diluted with saline, higher = larger tumour) 49 % of control; (endpoint: median tumor weight (est.), dose: 3.0 mg/kg/injection, schedule: Q07DX003 (ip), vehicle: saline with Tween-80, higher = larger tumour) 72 % of control; (endpoint: median tumor weight (est.), dose: 3.0 mg/kg/injection, schedule: Q07DX003 (iv), vehicle: acid diluted with saline, higher = larger tumour) 11 % of control; (endpoint: median tumor weight (est.), dose: 4.0 mg/kg/injection, schedule: Q07DX002 (ip), vehicle: acid diluted with saline, higher = larger tumour) 55 % of control.
